From PubChem BioAssay (NCI)
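48-hour exposure; five concentrations; linearly interpolated endpoints. The concentration for 50% growth inhibition is given as GI50. TGI denotes the concentration required for complete inhibition of growth.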

Assays:
Test in all cases: DTP human tumour cell line panel, 48 h
RXF 393 renal = system: RXF 393 renal
MDA-MB-468 breast = system: MDA-MB-468 breast
NCI-H522 lung = system: NCI-H522 lung
NCI-H23 lung = system: NCI-H23 lung
SK-OV-3 ovarian = system: SK-OV-3 ovarian
PC-3 prostate = system: PC-3 prostate
HCT-15 colon = system: HCT-15 colon
OVCAR-8 ovarian = system: OVCAR-8 ovarian
HCT-116 colon = system: HCT-116 colon
SK-MEL-5 melanoma = system: SK-MEL-5 melanoma
SNB-19 CNS = system: SNB-19 CNS
CAKI-1 renal = system: CAKI-1 renal
BT-549 breast = system: BT-549 breast
A498 renal = system: A498 renal
HCC-2998 colon = system: HCC-2998 colon
SF-539 CNS = system: SF-539 CNS
SF-268 CNS = system: SF-268 CNS
RPMI-8226 leukemia = system: RPMI-8226 leukemia
OVCAR-4 ovarian = system: OVCAR-4 ovarian
TK-10 renal = system: TK-10 renal
A549 NSCLC = system: A549 NSCLC
786-0 renal = system: 786-0 renal
OVCAR-5 ovarian = system: OVCAR-5 ovarian
K-562 leukemia = system: K-562 leukemia
OVCAR-3 ovarian = system: OVCAR-3 ovarian
NCI-H226 lung = system: NCI-H226 lung
KM12 colon = system: KM12 colon
M14 melanoma = system: M14 melanoma
COLO 205 colon = system: COLO 205 colon
MALME-3M melanoma = system: MALME-3M melanoma
NCI-H460 lung = system: NCI-H460 lung
DU-145 prostate = system: DU-145 prostate
T-47D breast = system: T-47D breast
MOLT-4 leukemia = system: MOLT-4 leukemia
SF-295 CNS = system: SF-295 CNS
UO-31 renal = system: UO-31 renal
EKVX NSCLC = system: EKVX NSCLC
SN12C renal = system: SN12C renal
ACHN renal = system: ACHN renal
CCRF-CEM leukemia = system: CCRF-CEM leukemia
UACC-62 melanoma = system: UACC-62 melanoma
HOP-92 NSCLC = system: HOP-92 NSCLC
NCI/ADR-RES ovarian = system: NCI/ADR-RES ovarian
U251 CNS = system: U251 CNS
HT29 colon = system: HT29 colon
MDA-MB-435 = system: MDA-MB-435
MCF7 breast = system: MCF7 breast
SK-MEL-28 melanoma = system: SK-MEL-28 melanoma
MDA-MB-231 breast = system: MDA-MB-231 breast
HS 578T breast = system: HS 578T breast
SW-620 colon = system: SW-620 colon
SR leukemia = system: SR leukemia
UACC-257 melanoma = system: UACC-257 melanoma
IGROV1 ovarian = system: IGROV1 ovarian
SK-MEL-2 melanoma = system: SK-MEL-2 melanoma
HL-60(TB) leukemia = system: HL-60(TB) leukemia
HOP-62 NSCLC = system: HOP-62 NSCLC
SNB-75 CNS = system: SNB-75 CNS
LOX IMVI melanoma = system: LOX IMVI melanoma

O=C(CNc1nc(-c2ccccc2)cs1)Nc1cccc([N+](=O)[O-])c1
GI50 (RXF 393 renal): 0.128 µM
TGI (RXF 393 renal): 0.269 µM
GI50 (MDA-MB-468 breast): 0.185 µM
TGI (MDA-MB-468 breast): 0.358 µM
GI50 (NCI-H522 lung): 0.129 µM
TGI (NCI-H522 lung): 0.297 µM
GI50 (NCI-H23 lung): 0.0724 µM
TGI (NCI-H23 lung): 0.202 µM
GI50 (SK-OV-3 ovarian): 0.128 µM
TGI (SK-OV-3 ovarian): 0.335 µM
GI50 (PC-3 prostate): 0.217 µM
TGI (PC-3 prostate): 1.86 µM
GI50 (HCT-15 colon): 0.093 µM
TGI (HCT-15 colon): 0.413 µM
GI50 (OVCAR-8 ovarian): 0.222 µM
TGI (OVCAR-8 ovarian): 0.568 µM
GI50 (HCT-116 colon): 0.188 µM
TGI (HCT-116 colon): 0.59 µM
GI50 (SK-MEL-5 melanoma): 0.166 µM
TGI (SK-MEL-5 melanoma): 0.302 µM
GI50 (SNB-19 CNS): 0.206 µM
TGI (SNB-19 CNS): 0.5 µM
GI50 (CAKI-1 renal): 0.182 µM
TGI (CAKI-1 renal): 0.558 µM
GI50 (BT-549 breast): 0.167 µM
TGI (BT-549 breast): 0.347 µM
GI50 (A498 renal): 0.223 µM
TGI (A498 renal): 0.555 µM
GI50 (HCC-2998 colon): 0.175 µM
TGI (HCC-2998 colon): 0.321 µM
GI50 (SF-539 CNS): 0.18 µM
TGI (SF-539 CNS): 0.358 µM
GI50 (SF-268 CNS): 0.257 µM
TGI (SF-268 CNS): 0.725 µM
GI50 (RPMI-8226 leukemia): 0.291 µM
TGI (RPMI-8226 leukemia): 1.23 µM
GI50 (OVCAR-4 ovarian): 0.223 µM
TGI (OVCAR-4 ovarian): 0.511 µM
GI50 (TK-10 renal): 0.197 µM
TGI (TK-10 renal): 0.66 µM
GI50 (A549 NSCLC): 0.323 µM
TGI (A549 NSCLC): 1.39 µM
GI50 (786-0 renal): 0.253 µM
TGI (786-0 renal): 0.663 µM
GI50 (OVCAR-5 ovarian): 0.203 µM
TGI (OVCAR-5 ovarian): 0.413 µM
GI50 (K-562 leukemia): 0.223 µM
TGI (K-562 leukemia): 11.2 µM
GI50 (OVCAR-3 ovarian): 0.251 µM
TGI (OVCAR-3 ovarian): 0.708 µM
GI50 (NCI-H226 lung): 0.188 µM
TGI (NCI-H226 lung): 0.444 µM
GI50 (KM12 colon): 0.246 µM
TGI (KM12 colon): 0.693 µM
GI50 (M14 melanoma): 0.177 µM
TGI (M14 melanoma): 0.347 µM
GI50 (COLO 205 colon): 0.193 µM
TGI (COLO 205 colon): 0.367 µM
GI50 (MALME-3M melanoma): 0.172 µM
TGI (MALME-3M melanoma): 0.314 µM
GI50 (NCI-H460 lung): 0.136 µM
TGI (NCI-H460 lung): 0.616 µM
GI50 (DU-145 prostate): 0.264 µM
TGI (DU-145 prostate): 0.73 µM
GI50 (T-47D breast): 0.218 µM
TGI (T-47D breast): 0.632 µM
GI50 (MOLT-4 leukemia): 0.117 µM
TGI (MOLT-4 leukemia): 2.53 µM
GI50 (SF-295 CNS): 0.223 µM
TGI (SF-295 CNS): 0.519 µM
GI50 (UO-31 renal): 0.169 µM
TGI (UO-31 renal): 0.444 µM
GI50 (EKVX NSCLC): 0.231 µM
TGI (EKVX NSCLC): 0.58 µM
GI50 (SN12C renal): 0.184 µM
TGI (SN12C renal): 0.469 µM
GI50 (ACHN renal): 0.2 µM
TGI (ACHN renal): 0.436 µM
GI50 (CCRF-CEM leukemia): 0.0587 µM
TGI (CCRF-CEM leukemia): 4.52 µM
GI50 (UACC-62 melanoma): 0.119 µM
TGI (UACC-62 melanoma): 0.245 µM
GI50 (HOP-92 NSCLC): 0.243 µM
TGI (HOP-92 NSCLC): 0.66 µM
GI50 (NCI/ADR-RES ovarian): 0.175 µM
TGI (NCI/ADR-RES ovarian): 0.381 µM
GI50 (U251 CNS): 0.262 µM
TGI (U251 CNS): 0.927 µM
GI50 (HT29 colon): 0.142 µM
TGI (HT29 colon): 0.357 µM
GI50 (MDA-MB-435): 0.17 µM
TGI (MDA-MB-435): 0.319 µM
GI50 (MCF7 breast): 0.166 µM
TGI (MCF7 breast): 0.551 µM
GI50 (SK-MEL-28 melanoma): 0.199 µM
TGI (SK-MEL-28 melanoma): 0.379 µM
GI50 (MDA-MB-231 breast): 0.196 µM
TGI (MDA-MB-231 breast): 0.375 µM
GI50 (HS 578T breast): 0.23 µM
TGI (HS 578T breast): 0.739 µM
GI50 (SW-620 colon): 0.0663 µM
TGI (SW-620 colon): 0.914 µM
GI50 (SR leukemia): 0.175 µM
TGI (SR leukemia): > 34.9 µM
GI50 (UACC-257 melanoma): 0.256 µM
TGI (UACC-257 melanoma): 0.826 µM
GI50 (IGROV1 ovarian): 0.108 µM
TGI (IGROV1 ovarian): 0.459 µM
GI50 (SK-MEL-2 melanoma): 0.177 µM
TGI (SK-MEL-2 melanoma): 0.323 µM
GI50 (HL-60(TB) leukemia): 0.198 µM
TGI (HL-60(TB) leukemia): 0.937 µM
GI50 (HOP-62 NSCLC): 0.216 µM
TGI (HOP-62 NSCLC): 0.469 µM
GI50 (SNB-75 CNS): 0.136 µM
TGI (SNB-75 CNS): 0.32 µM
GI50 (LOX IMVI melanoma): 0.106 µM
TGI (LOX IMVI melanoma): 0.238 µM
